Experimental findings from patent US4552879A, “Benzoheterocyclic compounds and pharmaceutical composition thereof” (Otsuka Pharmaceutical Co., Ltd., priority 1980, dated 1985) are described below.

Common to all, as to test: Minimum inhibitory concentration, serial dilution method on agar plate
What all share (assay type): cell-based

In one test the test system is Shigella sonnei EW 33. As to the method: The antimicrobial activity of the following test compounds on various test organisms listed below was determined by the serial dilution method on agar plate (Heart Infusion agar produced by Difco Co.) (see CHEMOTHERAPY 22, pp. 1126-1128 (1974)), and the minimum inhibitory concentrations (mcg/ml) obtained are shown in Tables 1, 2 and 3 below.
A sample of each test organism was prepared so that the population of the organism was 1×10^8 cells/ml (O.D. 660 mμ=0.07 to 0.16) and 1×10^6 cells/ml (which was obtained by diluting 100 fold the above 1×10^8 cells/ml preparation).

Test [1] deals with Pseudomonas aeruginosa E-2. The conditions noted are these: Pseudomonas aeruginosa, read-out: Minimum Inhibitory Concentration.
Test [2] concerns Serratia marcescens IFO 12648.
Test [3] relates to Salmonella typhi 0-901 (NCTC 8393). Particulars: Salmonella enterica.
Test [4] deals with Escherichia Coli NIHJ JC-2 (IFO 12734). Particulars: read-out: Minimum Inhibitory Concentration.
The test system of test [5] is Staphylococcus aureus FDA 209 P. The conditions noted are these: Staphylococcus aureus, read-out: Minimum Inhibitory Concentration.
The test system of another test is Proteus rettgeri NIH 96. Particulars: Providencia rettgeri, read-out: Minimum Inhibitory Concentration.
Test [6] relates to Streptococcus pyogenes IID S-23. Particulars: Streptococcus pyogenes, read-out: Minimum Inhibitory Concentration.
Test [7] has as its system Pseudomonas aeruginosa NCTC 10490. Particulars: for Minimum Inhibitory Concentration: 1×10^6 cells/ml; for MIC: Pseudomonas aeruginosa, NCTC10490, 1×10^8 cells/ml.
For a further test, the system named is Klebsiella pneumoniae. The conditions noted are these: read-out: Minimum Inhibitory Concentration.
Test [8] deals with Pseudomonas aeruginosa ATCC 10145. Particulars: Pseudomonas aeruginosa, read-out: Minimum Inhibitory Concentration.
The mark [9] stands for this setting: read-out: Minimum Inhibitory Concentration, 1×10^6 cells/ml.
Where [10] appears, read: read-out: Minimum Inhibitory Concentration, 1×10^8 cells/ml.

Values after ≈ are worked out from the molar mass of the structure shown. Like-named read-outs stand apart in the source and are kept apart here.

On to `CC1Cc2c(N3CCN(C(F)(F)F)CC3)c(F)cc3c(=O)c(C(=O)O)cn1c23.Cl` (centres unmarked) [Compound 8, 9-(4-Trifluoromethyl-1-piperazinyl)-8-fluoro-2-methyl-1,2-dihydro-6-oxo-pyrrolo[3,2,1-ij]quinoline-5-carboxylic acid hydrochloride], for which the MIC in the test with Shigella sonnei EW 33 (EW33, 1×10^6 cells/ml) was at most 0.006 µg/mL; with Shigella sonnei EW 33 (EW33, 1×10^8 cells/ml), 0.012 µg/mL; in [1] (E2, 1×10^6 cells/ml), 0.39 µg/mL; in test [1] (E2, 1×10^8 cells/ml) it was 0.39 µg/mL; in test [2] (IFO12648, read-out: Minimum Inhibitory Concentration, 1×10^6 cells/ml), 0.1 µg/mL; in test [2] (IFO12648, read-out: Minimum Inhibitory Concentration, 1×10^8 cells/ml), 0.2 µg/mL. Besides, the MIC in test [3] (setting [9]) is at most 0.006 µg/mL; in test [3] (setting [10]) it was at most 0.006 µg/mL; in test [4] (1×10^6 cells/ml), 0.024 µg/mL; in test [4] (1×10^8 cells/ml) it was 0.05 µg/mL; in [5] (FDA209, 1×10^6 cells/ml), 0.024 µg/mL; in [5] (FDA209, 1×10^8 cells/ml), 0.05 µg/mL. Further, the MIC with Proteus rettgeri NIH 96 (NIH96, 1×10^6 cells/ml) was below 0.006 µg/mL; with Proteus rettgeri NIH 96 (NIH96, 1×10^8 cells/ml), 0.012 µg/mL; in [6] (IIDS23, 1×10^6 cells/ml), 0.39 µg/mL; in test [6] (IIDS23, 1×10^8 cells/ml), 0.78 µg/mL; in [7] it was 0.39 µg/mL; in the test on Klebsiella pneumoniae (1×10^6 cells/ml), 0.012 µg/mL. The MIC with Klebsiella pneumoniae (1×10^8 cells/ml) was 0.05 µg/mL; in test [8] (ATCC10145, 1×10^6 cells/ml), 0.39 µg/mL; in test [8] (ATCC10145, 1×10^8 cells/ml), 0.39 µg/mL. Moreover, in test [7], the “Minimum Inhibitory Concentration” value amounted to 0.39 µg/mL.

`CC1Cc2c(N3CCOCC3)c(F)cc3c(=O)c(C(=O)O)cn1c23` (centres unmarked) [Compound 7, 9-Morpholino-8-fluoro-2-methyl-1,2-dihydro-6-oxo-pyrrolo[3,2,1-ij]quinoline-5-carboxylic acid]: the MIC against Shigella sonnei EW 33 (EW33, 1×10^6 cells/ml) is 0.024 µg/mL (≈ 0.0722 µM); in the test with Shigella sonnei EW 33 (EW33, 1×10^8 cells/ml), 0.024 µg/mL (≈ 0.0722 µM); in test [1] (E2, 1×10^6 cells/ml), 1.56 µg/mL (≈ 4.69 µM); in test [1] (E2, 1×10^8 cells/ml) it was 1.56 µg/mL (≈ 4.69 µM); in test [2] (IFO12648, 1×10^6 cells/ml, read-out: Minimum Inhibitory Concentration), 0.2 µg/mL (≈ 0.602 µM); in test [2] (IFO12648, 1×10^8 cells/ml, read-out: Minimum Inhibitory Concentration), 0.39 µg/mL (≈ 1.17 µM). For the same compound, the MIC in test [3] (setting [9]) was 0.024 µg/mL (≈ 0.0722 µM); in [3] (setting [10]) it was 0.024 µg/mL (≈ 0.0722 µM); in [4] (1×10^6 cells/ml), 0.2 µg/mL (≈ 0.602 µM); in [4] (1×10^8 cells/ml) it was 0.2 µg/mL (≈ 0.602 µM); in [5] (FDA209, 1×10^6 cells/ml), 0.024 µg/mL (≈ 0.0722 µM); in test [5] (FDA209, 1×10^8 cells/ml) it was 0.024 µg/mL (≈ 0.0722 µM). The MIC in the test with Proteus rettgeri NIH 96 (NIH96, 1×10^6 cells/ml) came to 0.05 µg/mL (≈ 0.15 µM); in the test with Proteus rettgeri NIH 96 (NIH96, 1×10^8 cells/ml), 0.05 µg/mL (≈ 0.15 µM); in [6] (IIDS23, 1×10^6 cells/ml), 0.78 µg/mL (≈ 2.35 µM); in test [6] (IIDS23, 1×10^8 cells/ml), 0.78 µg/mL (≈ 2.35 µM); in [7], 1.56 µg/mL (≈ 4.69 µM); in the test on Klebsiella pneumoniae (1×10^6 cells/ml) it was 0.1 µg/mL (≈ 0.301 µM). Further, the MIC worked out at 0.2 µg/mL (≈ 0.602 µM) in the test on Klebsiella pneumoniae (1×10^8 cells/ml); 1.56 µg/mL (≈ 4.69 µM) in [8] (ATCC10145, 1×10^6 cells/ml); 1.56 µg/mL (≈ 4.69 µM) in test [8] (ATCC10145, 1×10^8 cells/ml). In addition, the “Minimum Inhibitory Concentration” value in [7] amounted to 1.56 µg/mL.
